Data from US8629167B2, “Selective androgen receptor modulators” (Radius Health, Inc., priority 2008, dated 2014).

target: androgen receptor (Rattus norvegicus (Rat), UniProt P15207); assay: androgen receptor binding assay (fluorescence polarization, AR-Fluormone complex); settings: not given
Method: The assay was performed as specified by the manufacturer (Invitrogen, Madison, Wis.). Briefly, 1 μl of 10 mM compound was added to 500 μl of AR screening buffer in a 1.5 ml eppendorf tube to make a 2×10^−5 M stock. 10-fold serial dilutions of the test compounds were prepared ranging in concentration from 10^−5M to 10^−12 M. Each dilution was added in triplicate to a black 384-microtiter plate. The test compounds will be diluted 2-fold in the final reaction. 2×AR-Fluormone™ complex was prepared with 2 nM Flourmone AL Green™ and 30 nM AR. 25 μl of 2× complex was aliquoted to each reaction well, such that the final reaction volume was 50 μl per well. Plate was sealed with a foil cover and incubated in the dark at room temperature for 4 h. Polarization values for each well were measured. The polarization values were plotted against the concentration of the test compound. […] As a control, a competition curve for R1881 (methyltrienolone) was performed for each assay. Curve Fitting was performed using GraphPad Prism® software from GraphPad™ Software Inc. Binding data are reported as a single determination if the experiment was run once only and as the average of experiments if the binding experiment was performed two or more times with that compound.
Were multiple data points have been taken, the value reported is the average of the multiple determinations.

Sequence of androgen receptor (P15207 whole entry, looked up): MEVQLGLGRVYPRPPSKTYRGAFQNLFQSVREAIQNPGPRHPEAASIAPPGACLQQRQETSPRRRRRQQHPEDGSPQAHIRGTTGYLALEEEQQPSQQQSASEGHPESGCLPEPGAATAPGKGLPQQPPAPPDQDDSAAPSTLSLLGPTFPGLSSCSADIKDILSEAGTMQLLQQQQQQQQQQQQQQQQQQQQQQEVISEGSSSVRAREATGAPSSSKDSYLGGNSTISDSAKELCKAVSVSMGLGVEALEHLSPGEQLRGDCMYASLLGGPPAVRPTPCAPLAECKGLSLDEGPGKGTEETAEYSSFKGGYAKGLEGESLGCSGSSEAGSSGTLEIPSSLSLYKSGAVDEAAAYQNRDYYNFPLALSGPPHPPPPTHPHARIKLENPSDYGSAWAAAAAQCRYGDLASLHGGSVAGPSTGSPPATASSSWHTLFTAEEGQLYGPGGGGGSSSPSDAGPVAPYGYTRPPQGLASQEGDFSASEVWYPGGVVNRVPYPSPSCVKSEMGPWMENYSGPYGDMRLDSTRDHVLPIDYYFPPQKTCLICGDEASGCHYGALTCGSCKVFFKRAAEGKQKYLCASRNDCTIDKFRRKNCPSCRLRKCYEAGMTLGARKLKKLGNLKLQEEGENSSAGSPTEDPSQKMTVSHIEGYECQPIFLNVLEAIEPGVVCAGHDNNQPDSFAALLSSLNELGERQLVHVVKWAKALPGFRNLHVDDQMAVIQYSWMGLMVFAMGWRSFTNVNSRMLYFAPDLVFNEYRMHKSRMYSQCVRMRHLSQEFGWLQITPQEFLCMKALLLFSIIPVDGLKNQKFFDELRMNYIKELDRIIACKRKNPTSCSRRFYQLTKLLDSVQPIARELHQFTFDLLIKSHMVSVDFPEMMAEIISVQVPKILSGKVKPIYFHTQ

Structure (SMILES)	IC50 [nM]
C[C@H](O)[C@@H](Nc1ccc(C#N)c2scc(Cl)c12)c1nnc(-c2ccc(C#N)cc2)o1 [Example 95, 3-Chloro-4-((1R,2S)-1-(5-(4-cyanophenyl)-1,3,4-oxadiazol-2-yl)-2-hydroxypropylamino)benzo[b]thiophene-7-carbonitrile]	1
CC(=O)O[C@@H](C)[C@@H](Nc1ccc(C#N)c(Cl)c1C)c1nnc(-c2ccccc2)o1 [Example 76, (1R,2S)-1-(3-chloro-4-cyano-2-methylphenylamino)-1-(5-phenyl-1,3,4-oxadiazol-2-yl)propan-2-yl acetate]	15
CCC(=O)O[C@@H](C)[C@@H](Nc1ccc(C#N)c(Cl)c1C)c1nnc(-c2ccccc2)o1 [Example 84, (1R,2S)-1-(3-Chloro-4-cyano-2-methylphenylamino)-1-(5-phenyl-1,3,4-oxadiazol-2-yl)propan-2-yl propionate]	25
CCCC(=O)O[C@@H](C)[C@@H](Nc1ccc(C#N)c(Cl)c1C)c1nnc(-c2ccc(C#N)cc2)o1 [Example 85, (1R,2S)-1-(3-Chloro-4-cyano-2-methylphenylamino)-1-(5-(4-cyanophenyl)-1,3,4-oxadiazol-2-yl)propan-2-yl butyrate]	10
[2H]c1ccc(-c2nnc([C@H](Nc3ccc(C#N)c(Cl)c3C)[C@H](C)O)o2)cc1 [Example 97, 2-Chloro-4-((1R,2S)-1-(5-(4-deuterophenyl)-1,3,4-oxadiazol-2-yl)-2-hydroxypropylamino)-3-methylbenzonitrile]	18
CC(=O)Oc1ccc(-c2nnc([C@H](Nc3ccc(C#N)c(Cl)c3C)[C@H](C)OC(C)=O)o2)cc1 [Example 73, 4-(5-((1R,2S)-2-Acetoxy-1-(3-chloro-4-cyano-2-methylphenylamino)propyl)-1,3,4-oxadiazol-2-yl)phenyl acetate]	30
Cc1c(N[C@@H](c2nnc(-c3ccccc3)o2)[C@H](C)OS(N)(=O)=O)ccc(C#N)c1Cl [Example 90, (1R,2S)-1-(3-Chloro-4-cyano-2-methylphenylamino)-1-(5-phenyl-1,3,4-oxadiazol-2-yl)propan-2-yl sulfamate]	20
CCC(=O)O[C@@H](C)[C@@H](Nc1ccc(C#N)c(Cl)c1C)c1nnc(-c2ccc(C#N)cc2)o1 [Example 86, (1R,2S)-1-(3-Chloro-4-cyano-2-methylphenylamino)-1-(5-(4-cyanophenyl)-1,3,4-oxadiazol-2-yl)propan-2-yl propionate]	120
Cc1c(N[C@@H](c2nnc(-c3ccc4[nH]ccc4c3)o2)[C@H](C)O)ccc(C#N)c1Cl [Example 98, 4-((1R,2S)-1-(5-(1H-Indol-5-yl)-1,3,4-oxadiazol-2-yl)-2-hydroxypropylamino)-2-chloro-3-methylbenzonitrile]	80
Cc1c(N[C@@H](c2nnc(-c3ccc(OS(N)(=O)=O)cc3)o2)[C@H](C)O)ccc(C#N)c1Cl [Example 93, 4-(5-((1R,2S)-1-(3-Chloro-4-cyano-2-methylphenylamino)-2-hydroxypropyl)-1,3,4-oxadiazol-2-yl)phenyl sulfamate]	25
CC(=O)O[C@@H](C)[C@@H](Nc1ccc(C#N)c(Cl)c1C)c1nnc(-c2ccc(C#N)cc2)o1 [Example 88, (1R,2S)-1-(3-Chloro-4-cyano-2-methylphenylamino)-1-(5-(4-cyanophenyl)-1,3,4-oxadiazol-2-yl)propan-2-yl acetate]	110

same assay, conditions: single determination or average of multiple determinations; read-out: Binding IC50 (nM), Compound AR-Binding Affinity

Structure (SMILES)	IC50 [nM]
Cc1c(N[C@H](c2ccc(-c3nnco3)cc2)[C@@H](C)OS(N)(=O)=O)ccc(C#N)c1Cl [Example 94, (1R,2R)-1-(3-Chloro-4-cyano-2-methylphenylamino)-1-(4-(1,3,4-oxadiazol-2-yl)phenyl sulfamate)propan-2-yl sulfamate]	> 1000
C[C@H](O)[C@@H](Nc1ccc(C#N)c(Cl)c1)c1nnc(-c2ccc(S(C)(=O)=O)cc2)o1 [Example 48, 2-Chloro-4-((1R,2S)-2-hydroxy-1-(5-(4-(methylsulfonyl)phenyl)-1,3,4-oxadiazol-2-yl)propylamino)benzonitrile]	> 1000
Cc1c(N[C@@H](c2nnc(-c3ccc(NC(=O)c4ccccc4)cc3)o2)[C@H](C)O)ccc(C#N)c1Cl [Example 77, N-(4-(5-((1R,2S)-1-(3-Chloro-4-cyano-2-methylphenylamino)-2-hydroxypropyl)-1,3,4-oxadiazol-2-yl)phenyl)benzamide]	1000

system: young, orchidectomized rats; assay: Rat Herschberger assay (in vivo androgen and anabolic activity); settings: organ weight, 10 mg/kg (po), treated for 4 days
Source text: The following is a typical procedure of the in vivo evaluation of the selective androgens of this invention. In particular, this assay looks primarily at the ability of the selective androgens of this invention to increase muscle size in an immature, castrated rat. In addition, androgenic effects are looked at primarily by weighing the prostate and seminal vesicles. Selective compounds will show a greater increase in the levator ani relative to the prostate and seminal vesicles when compared to testosterone treated, castrated animals or to intact animals that have not been treated. Immature Sprague Dawley male rats were obtained Charles River Laboratories (Stoneridge, N.Y.). All animals were maintained in a temperature and humidity controlled room with a 12 hr light: 12 hr dark cycle, with ad lib access to food (TD 291615, Teklad, Madison, Wis.) and water. Rats were anesthetized and orchidectomized (GDX) or sham surgery (SHAM) was performed. After a 7-day recovery period, the animals were randomized according to weight and assigned to treatment groups (n=5), SHAM, OVX+vehicle, OVX+Cpd treated. Testosterone propionate (TP 1 mg/kg in 5% DMSO/95% corn oil) was administered by once daily subcutaneous injections, while the compounds of the invention are dosed in vehicle (typically 20% cyclodextrin or 0.5% carboxymethylcellulose) was administered by once daily oral gavage. The rats were then dosed once daily for 4 days. All animals were euthanized via carbon dioxide inhalation 24 hs after the last dose. The prostate, seminal vesicle and levator ani and bulba cavernous (LABC) tissues were removed, weighed and recorded. Body weights were recorded for each animal at baseline and at sacrifice.
Prostate, seminal vesicle and levator ani bulbus cavernosus (LABC) are all represented as % relative to sham. After sacrifice, organ weights of young, orchidectomized rats treated with compound for 4 days are compared to sham operated animals.

Structure (SMILES)	LABC (levator ani bulbus cavernosus), % relative to sham [%]	Prostate, % relative to sham [%]	Seminal vesicle, % relative to sham [%]
Cc1c(N[C@@H](c2nnc(-c3ccccc3)o2)[C@@H](C)O)ccc(C#N)c1Cl [Example 3, 2-chloro-4-((1R,2R)-2-hydroxy-1-(5-phenyl-1,3,4-oxadiazol-2-yl)propylamino)-3-methylbenzonitrile]	99	43	37
Cc1c(N[C@@H](c2nnc(-c3ccccc3)o2)[C@H](C)O)ccc(C#N)c1Cl [Example 1, 2-chloro-4-((1R,2S)-2-hydroxy-1-(5-phenyl-1,3,4-oxadiazol-2-yl)propylamino)-3-methylbenzonitrile]	85	46	69
